Experimental data from ChEMBL document CHEMBL2413072, “Synthesis and in vitro anticancer studies of novel C-2 arylidene congeners of lantadenes” (2013).

How the values were obtained:
Type in all cases: functional
SF-295 = experiment: Growth inhibition of human SF295 cells assessed as growth inhibition at 10 uM by sulforhodamine B assay; conditions: read-out: GI
CCRF-CEM = experiment: Growth inhibition of human CCRF-CEM cells assessed as growth inhibition at 10 uM by sulforhodamine B assay; conditions: read-out: GI
[1] = Growth inhibition of human NCI-ADR-RES cells assessed as cell growth at 10 uM by sulforhodamine B assay; conditions: read-out: Activity
HCT-116 = experiment: Growth inhibition of human HCT116 cells assessed as growth inhibition at 10 uM by sulforhodamine B assay; conditions: read-out: GI
DU-145 = experiment: Growth inhibition of human DU145 cells assessed as cell growth at 10 uM by sulforhodamine B assay; conditions: read-out: Activity
[2] = Growth inhibition of human EKVX cells assessed as growth inhibition at 10 uM by sulforhodamine B assay; conditions: read-out: GI
[3] = Growth inhibition of human EKVX cells assessed as cell growth at 10 uM by sulforhodamine B assay; conditions: read-out: Activity
HOP-62 = experiment: Growth inhibition of human HOP62 cells assessed as cell growth at 10 uM by sulforhodamine B assay; conditions: read-out: Activity
ACHN [4] = experiment: Growth inhibition of human ACHN cells assessed as cell growth at 10 uM by sulforhodamine B assay; conditions: read-out: Activity
NCI-H322M = experiment: Growth inhibition of human NCI-H322M cells assessed as cell growth at 10 uM by sulforhodamine B assay; conditions: read-out: Activity
SK-MEL-2 = experiment: Growth inhibition of human SK-MEL-2 cells assessed as growth inhibition at 10 uM by sulforhodamine B assay; conditions: read-out: GI
SNB-75 [5] = experiment: Growth inhibition of human SNB75 cells assessed as cell growth at 10 uM by sulforhodamine B assay; conditions: read-out: Activity
A549 [6] = experiment: Growth inhibition of human A549/ATCC cells assessed as growth inhibition at 10 uM by sulforhodamine B assay; conditions: read-out: GI
[7] = Growth inhibition of human NCI-ADR-RES cells assessed as growth inhibition at 10 uM by sulforhodamine B assay; conditions: read-out: GI
MDA-MB-468 = experiment: Growth inhibition of human MDA-MB-468 cells assessed as cell growth at 10 uM by sulforhodamine B assay; conditions: read-out: Activity
ACHN [8] = experiment: Growth inhibition of human ACHN cells assessed as growth inhibition at 10 uM by sulforhodamine B assay; conditions: read-out: GI
TK-10 = experiment: Growth inhibition of human TK10 cells assessed as growth inhibition at 10 uM by sulforhodamine B assay; conditions: read-out: GI
OVCAR-4 = experiment: Growth inhibition of human OVCAR4 cells assessed as growth inhibition at 10 uM by sulforhodamine B assay; conditions: read-out: GI
OVCAR-3 = experiment: Growth inhibition of human OVCAR3 cells assessed as cell growth at 10 uM by sulforhodamine B assay; conditions: read-out: Activity
786-0 = experiment: Growth inhibition of human 786-0 cells assessed as growth inhibition at 10 uM by sulforhodamine B assay; conditions: read-out: GI
[9] = Growth inhibition of human Hs 578T cells assessed as growth inhibition at 10 uM by sulforhodamine B assay; conditions: read-out: GI
COLO 205 [10] = experiment: Growth inhibition of human COLO205 cells assessed as cell growth at 10 uM by sulforhodamine B assay; conditions: read-out: Activity
NCI-H23 [11] = experiment: Growth inhibition of human NCI-H23 cells assessed as growth inhibition at 10 uM by sulforhodamine B assay; conditions: read-out: GI
NCI-H226 [12] = experiment: Growth inhibition of human NCI-H226 cells assessed as growth inhibition at 10 uM by sulforhodamine B assay; conditions: read-out: GI
HOP-92 = experiment: Growth inhibition of human HOP92 cells assessed as cell growth at 10 uM by sulforhodamine B assay; conditions: read-out: Activity
[13] = Growth inhibition of human HCC2998 cells assessed as growth inhibition at 10 uM by sulforhodamine B assay; conditions: HCC 2998, read-out: GI
HL-60(TB) = experiment: Growth inhibition of human HL-60(TB) cells assessed as cell growth at 10 uM by sulforhodamine B assay; conditions: read-out: Activity
SNB-19 = experiment: Growth inhibition of human SNB19 cells assessed as cell growth at 10 uM by sulforhodamine B assay; conditions: read-out: Activity
NCI-H23 [14] = experiment: Growth inhibition of human NCI-H23 cells assessed as cell growth at 10 uM by sulforhodamine B assay; conditions: read-out: Activity
U-251 = experiment: Growth inhibition of human U251 cells assessed as cell growth at 10 uM by sulforhodamine B assay; conditions: read-out: Activity
IGROV-1 = experiment: Growth inhibition of human IGROV1 cells assessed as growth inhibition at 10 uM by sulforhodamine B assay; conditions: read-out: GI
SK-MEL-28 = experiment: Growth inhibition of human SK-MEL-28 cells assessed as cell growth at 10 uM by sulforhodamine B assay; conditions: read-out: Activity
A498 = experiment: Growth inhibition of human A498 cells assessed as cell growth at 10 uM by sulforhodamine B assay; conditions: read-out: Activity
MDA-MB-231 = experiment: Growth inhibition of human MDA-MB-231 cells assessed as cell growth at 10 uM by sulforhodamine B assay; conditions: read-out: Activity
NCI-H522 = experiment: Growth inhibition of human NCI-H522 cells assessed as growth inhibition at 10 uM by sulforhodamine B assay; conditions: read-out: GI
MCF7 = experiment: Growth inhibition of human MCF7 cells assessed as growth inhibition at 10 uM by sulforhodamine B assay; conditions: read-out: GI
COLO 205 [15] = experiment: Growth inhibition of human COLO205 cells assessed as growth inhibition at 10 uM by sulforhodamine B assay; conditions: read-out: GI
SK-OV-3 [16] = experiment: Growth inhibition of human SKOV3 cells assessed as cell growth at 10 uM by sulforhodamine B assay; conditions: read-out: Activity
UACC-257 = experiment: Growth inhibition of human UACC257 cells assessed as growth inhibition at 10 uM by sulforhodamine B assay; conditions: read-out: GI
SK-OV-3 [17] = experiment: Growth inhibition of human SKOV3 cells assessed as growth inhibition at 10 uM by sulforhodamine B assay; conditions: read-out: GI
OVCAR-8 = experiment: Growth inhibition of human OVCAR8 cells assessed as growth inhibition at 10 uM by sulforhodamine B assay; conditions: read-out: GI
HT-29 = experiment: Growth inhibition of human HT-29 cells assessed as cell growth at 10 uM by sulforhodamine B assay; conditions: read-out: Activity
MDA-MB-435 = experiment: Growth inhibition of human MDA-MB-435 cells assessed as cell growth at 10 uM by sulforhodamine B assay; conditions: read-out: Activity
NCI-H226 [18] = experiment: Growth inhibition of human NCI-H226 cells assessed as cell growth at 10 uM by sulforhodamine B assay; conditions: read-out: Activity
SK-MEL-5 = experiment: Growth inhibition of human SK-MEL-5 cells assessed as cell growth at 10 uM by sulforhodamine B assay; conditions: read-out: Activity
LOX IMVI = experiment: Growth inhibition of human LOXIMVI cells assessed as cell growth at 10 uM by sulforhodamine B assay; conditions: read-out: Activity
SNB-75 [19] = experiment: Growth inhibition of human SNB75 cells assessed as growth inhibition at 10 uM by sulforhodamine B assay; conditions: read-out: GI
A549 [20] = experiment: Growth inhibition of human A549/ATCC cells assessed as cell growth at 10 uM by sulforhodamine B assay; conditions: read-out: Activity

Work on `CC1(C)C[C@@H](O)[C@]2(C(=O)O)CC[C@]3(C)C(=CC[C@@H]4[C@@]5(C)C/C(=C\C=C\c6ccccc6)C(=O)C(C)(C)[C@@H]5CC[C@]43C)[C@@H]2C1` yielded an inhibition of growth at 10 µM (SF-295) of 76.5%, an inhibition of growth at 10 µM (CCRF-CEM) of 80.1% and a growth at 10 µM [1] of 76.2%. For the same molecule, the inhibition of growth at 10 µM (HCT-116) was 82.5%, the growth at 10 µM (DU-145) was 71.2% and the inhibition of growth at 10 µM [2] was 60.6%. It also gave a growth at 10 µM [3] of 39.4%, a growth at 10 µM (HOP-62) of 62.8% and a growth at 10 µM (ACHN [4]) of 41.9%. It also gave a growth at 10 µM (NCI-H322M) of 71.9%, an inhibition of growth at 10 µM (SK-MEL-2) of 35.4% and a growth at 10 µM (SNB-75 [5]) of 72.1%. For the same molecule, the inhibition of growth at 10 µM (A549 [6]) was 77.3%, the inhibition of growth at 10 µM [7] was 23.8% and the growth at 10 µM (MDA-MB-468) was 72.6%. For the same molecule, the inhibition of growth at 10 µM (ACHN [8]) was 58.1%, the inhibition of growth at 10 µM (TK-10) was 11.7% and the inhibition of growth at 10 µM (OVCAR-4) was 45.8%. The growth at 10 µM (OVCAR-3) was 57.3%, the inhibition of growth at 10 µM (786-0) was 21.9% and the inhibition of growth at 10 µM [9] was 41.6%. The growth at 10 µM (COLO 205 [10]) was 97.8%, the inhibition of growth at 10 µM (NCI-H23 [11]) was 40.3% and the inhibition of growth at 10 µM (NCI-H226 [12]) was 27.7%. For the same molecule, the growth at 10 µM (HOP-92) was 49.2%, the inhibition of growth at 10 µM [13] was 17.2% and the growth at 10 µM (HL-60(TB)) was 38.8%. For the same molecule, the growth at 10 µM (SNB-19) was 73.4%, the growth at 10 µM (NCI-H23 [14]) was 59.7% and the growth at 10 µM (U-251) was 33.6%. The inhibition of growth at 10 µM (IGROV-1) was 39.2%, the growth at 10 µM (SK-MEL-28) was 74.2% and the growth at 10 µM (A498) was 95.7%. For the same molecule, the growth at 10 µM (MDA-MB-231) was 68.9%, the inhibition of growth at 10 µM (NCI-H522) was 52.3% and the inhibition of growth at 10 µM (MCF7) was 66.2%. The inhibition of growth at 10 µM (COLO 205 [15]) was less than 10%, the growth at 10 µM (SK-OV-3 [16]) was 85.7% and the inhibition of growth at 10 µM (UACC-257) was 38%. It also gave an inhibition of growth at 10 µM (SK-OV-3 [17]) of 14.3%, an inhibition of growth at 10 µM (OVCAR-8) of 57% and a growth at 10 µM (HT-29) of 51.7%. The growth at 10 µM (MDA-MB-435) was 72.3%, the growth at 10 µM (NCI-H226 [18]) was 72.3% and the growth at 10 µM (SK-MEL-5) was 73.7%. For the same molecule, the growth at 10 µM (LOX IMVI) was 61.4%, the inhibition of growth at 10 µM (SNB-75 [19]) was 27.9% and the growth at 10 µM (A549 [20]) was 22.7%.
